For series [1], the target named is T1, Human Aryl Hydrocarbon Receptor (AHR) (Homo sapiens, UniProt P35869).
T1 sequence (P35869 11-848): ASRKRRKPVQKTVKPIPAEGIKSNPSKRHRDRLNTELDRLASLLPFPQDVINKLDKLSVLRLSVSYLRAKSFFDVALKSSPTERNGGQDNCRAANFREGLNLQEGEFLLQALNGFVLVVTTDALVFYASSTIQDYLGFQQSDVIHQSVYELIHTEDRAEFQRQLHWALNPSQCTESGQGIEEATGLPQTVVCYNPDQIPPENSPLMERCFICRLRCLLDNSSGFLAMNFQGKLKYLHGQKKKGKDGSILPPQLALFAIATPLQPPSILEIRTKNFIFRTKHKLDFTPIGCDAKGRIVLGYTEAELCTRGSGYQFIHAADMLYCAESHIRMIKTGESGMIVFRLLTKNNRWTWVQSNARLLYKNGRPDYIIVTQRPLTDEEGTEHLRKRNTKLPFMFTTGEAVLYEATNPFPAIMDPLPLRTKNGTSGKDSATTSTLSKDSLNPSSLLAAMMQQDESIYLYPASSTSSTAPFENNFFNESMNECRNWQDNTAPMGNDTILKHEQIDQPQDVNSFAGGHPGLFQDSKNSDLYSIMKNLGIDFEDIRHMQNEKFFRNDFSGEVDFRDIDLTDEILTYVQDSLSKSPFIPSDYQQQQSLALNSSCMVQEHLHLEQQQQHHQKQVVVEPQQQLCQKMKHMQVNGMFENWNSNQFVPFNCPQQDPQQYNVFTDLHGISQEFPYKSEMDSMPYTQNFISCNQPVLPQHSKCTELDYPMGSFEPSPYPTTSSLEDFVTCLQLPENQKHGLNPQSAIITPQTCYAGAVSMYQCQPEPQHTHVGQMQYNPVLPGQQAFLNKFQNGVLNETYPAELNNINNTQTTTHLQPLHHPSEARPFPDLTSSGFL
In words: Cell-based luciferase reporter gene assay driven by AHR-responsive promoter. Background: In a reporter assay the amount or activity of a reporter protein is the signal.

Series [2] can be described thus: Serum pharmacokinetics after oral gavage in mice. Format: in vivo.
Another series deals with nuclear MEF2/HDAC4/NCoR1 (Homo sapiens, UniProt P56524). In words: Nuclear NCoR1 immunoprecipitated with MEF-2 in CWR-22Rv1 cells under hypoxia. Format: cell-based. The conditions noted are these: discussion summary.
Sequence of nuclear MEF2/HDAC4/NCoR1 (P56524 whole entry): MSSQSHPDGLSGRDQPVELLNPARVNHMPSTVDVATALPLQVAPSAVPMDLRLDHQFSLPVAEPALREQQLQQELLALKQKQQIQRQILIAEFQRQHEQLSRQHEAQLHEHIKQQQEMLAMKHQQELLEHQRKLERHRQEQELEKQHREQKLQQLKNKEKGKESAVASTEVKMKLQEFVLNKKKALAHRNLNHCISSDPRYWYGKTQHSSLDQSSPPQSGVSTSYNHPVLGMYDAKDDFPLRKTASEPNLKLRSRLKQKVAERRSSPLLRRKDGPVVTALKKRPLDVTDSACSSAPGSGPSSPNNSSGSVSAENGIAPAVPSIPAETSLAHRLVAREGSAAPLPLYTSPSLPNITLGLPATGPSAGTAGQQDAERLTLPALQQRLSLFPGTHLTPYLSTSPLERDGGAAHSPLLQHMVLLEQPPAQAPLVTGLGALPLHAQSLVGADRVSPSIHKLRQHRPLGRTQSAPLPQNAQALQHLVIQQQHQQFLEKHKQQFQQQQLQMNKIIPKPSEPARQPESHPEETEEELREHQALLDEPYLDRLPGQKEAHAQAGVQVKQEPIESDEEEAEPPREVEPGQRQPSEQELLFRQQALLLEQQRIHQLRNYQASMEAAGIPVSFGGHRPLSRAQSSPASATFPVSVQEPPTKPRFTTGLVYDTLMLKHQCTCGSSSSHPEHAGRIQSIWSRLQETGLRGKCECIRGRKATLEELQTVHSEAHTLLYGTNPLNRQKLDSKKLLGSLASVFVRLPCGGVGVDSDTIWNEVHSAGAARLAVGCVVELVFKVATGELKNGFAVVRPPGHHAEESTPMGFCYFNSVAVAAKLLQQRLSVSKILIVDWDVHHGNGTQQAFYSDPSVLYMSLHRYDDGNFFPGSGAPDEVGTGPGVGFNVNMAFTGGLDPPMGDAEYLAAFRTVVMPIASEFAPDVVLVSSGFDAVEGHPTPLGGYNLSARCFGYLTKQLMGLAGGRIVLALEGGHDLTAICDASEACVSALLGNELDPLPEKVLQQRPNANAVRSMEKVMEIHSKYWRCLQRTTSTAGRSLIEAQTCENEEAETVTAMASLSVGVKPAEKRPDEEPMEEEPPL
A further series deals with liver Cyp1a1. In words: Liver Cyp1a1 induction in mice. Format: in vivo. As to conditions: oral, even at 30 mg/kg/d.
The next series deals with thymus. Put plainly: AHR agonist induced thymus regression in FVB male mice. Type of series: in vivo.
Another series can be described thus: Water solubility. Format: physicochemical.
The target in the next series is human AHR (Homo sapiens, UniProt P35869). In words: Photo-affinity label. The conditions noted are these: competitive PAL AHR binding assay.
The subject of another series is 68 kinases. In words: Targeted kinase screen. As to conditions: 10 μM. Type of series: biochemical.
Series [3] relates to CWR22-RH human prostate cancer PDXs. In words: In vivo growth of CWR22-RH PDX in castrate NSG mice. Also noted: species or system human xenograft in NSG mice.
The subject of series [4] is LvCaP-3 human prostate cancer PDXs. In words: In vivo growth of LvCaP-3 PDX in castrate mice. Also noted: species or system human xenograft in mice. The conditions noted are these: oral 10 mg/kg/d.
A further series deals with immobilized fl-HDAC4 (Homo sapiens, UniProt P56524). Put plainly: SPR: compound in solution binding to immobilized fl-HDAC4. As to conditions: at >30 μM in solution, Zn2+ present.
Sequence of immobilized fl-HDAC4 (P56524 whole entry): as above
The conditions of series [5]: chronic doses of ≤0.1 mg/kg; cited from earlier work.
A further series deals with fl-HDAC4 (Homo sapiens, UniProt P56524). Put plainly: HDAC4 enzymatic assay with Lys. Format: biochemical. The conditions noted are these: Lys(TFA)-AMC substrate.
Sequence of fl-HDAC4 (P56524 whole entry): as above

Each structure is given as a SMILES string. “And” between values parts separate entries of the source, which are not always exact repeats. Equal entries are not always repeated. Some results are limits rather than exact numbers.

Turning to `COc1cccc2c1c(O)c(C(=O)N(c1ccc(C(F)(F)F)cc1)C1CCCCC1)c(=O)n2C` [ESATA-20], in series [1] (cell-based AHR-promoter assay), the “fold lower AHR agonism than TasQ” value was 10 fold and ~ 10 fold. Moreover, the EC50 in series [1] (read-out: AHR agonist EC50, human cell-based luciferase reporter) was determined as 10 µM. In addition, in series [2] (10 mg/kg oral, DMSO/HPCD vehicle), the “fold lower bioavailability than TasQ” value was found to be 5.5 fold. For the same molecule, in [2] (mouse, in vivo), the “alpha half-life for tissue distribution” value worked out at 3 h, the “beta half-life for serum elimination” value lay in the range of 10 to 12 h and the “drug bound to serum proteins” value is reported as > 98%. Moreover, the “fold more potent HDAC4 inhibitor (vs TasQ)” value on nuclear MEF2/HDAC4/NCoR1 is reported as ≥ 5 fold. Besides, in the series with liver Cyp1a1, the “induction of liver Cyp1a1” value is on record as “lack of induction”. In the series with thymus (oral, even at 30 mg/kg/d), the “thymus regression” value was “lack of induction”. In addition, the “water solubility” value in “Water solubility” is listed as “less water soluble than TasQ”. Also, at human AHR, the “fold lower binding affinity than TasQ” value stood at 10 fold. Also, in the series with 68 kinases, the “change in activity in any of the 68 kinases” value is < 15%. In addition, the “anti-cancer efficacy” value in series [3] (10 mg/kg/d oral) is on record as “same significant maximal anti-cancer efficacy as TasQ”. Also, the “serum concentration at which maximal anti-prostate cancer efficacy is produced” value in series [3] (in vivo) was < 2 µM.

As to `c1ccc2c(c1)cc1ccc3cccc4ccc2c1c34` [B(a)P, benzo[a]pyrene], the “therapeutic efficacy” value in series [4] is listed as “completely lacks therapeutic efficacy”. Moreover, in the series on thymus (oral 10 mg/kg/d for 14 days, vehicle 72 +/− 3 (>70)), the thymus weight was found to be 27 ± 8 mg.

In the case of `COC(=O)c1c(O)c2c(OC)cccc2n(C)c1=O` [ESATA-2], the “growth inhibitor (GI) activity” value in series [3] (oral 10 mg/kg/d over 3 weeks, castrate NSG mice) was “no GI activity”.

Take `CN(C(=O)c1c(O)c2ccccc2n(C)c1=O)c1ccccc1` [Linomide, 4-hydroxy-N,1-dimethyl-2-oxo-N-phenyl-1,2-dihydroquinoline-3-carboxamide]: the “share of immobilized fl-HDAC4 protein bound” value on immobilized fl-HDAC4 is 10–15%. Further, in [5], the “side effects in phase III trials” value is “several cases of pericarditis and neuropathy”.

As for `O=C(c1ccc(C(=O)C(F)(F)F)s1)N1CCn2c(-c3ccccc3)cnc2C1` [TFT-PIP], the “effect on enzymatic activity” value at fl-HDAC4 is listed as “inhibited”.

A word on the EC50: it is the midpoint of the concentration-response curve.

The record behind these values is publication PMC10559933 (The Prostate, 2023).
